Counter-ions that a name gives are not always drawn. Like-named read-outs stand apart in the source and are kept apart here.
Key:
[1] = Pharmacokinetic assessment in male Wistar rats (i.v.); format: in vivo, rat; details: for concentration at 0.25 h / concentration at 0.5 h: rat, intravenous
Protocol: (§1) For PK evaluation, the compounds were administered i.p to male C57BL/6 mice in suspension (gelatine/saline 7.5%/0.62% in water) using an administration volume of 4 mL/kg. Blood samples were collected in tubes containing EDTA, plasma was separated by centrifugation and stored at −80° C. Liver and kidney samples (˜100 mg aliquots) were homogenized in three volumes of water using Precellys tissue homogenization tubes (precellys.com). 25 μL of each tissue homogenate was further diluted with 25 μL blank plasma to produce the final tissue homogenate for extraction. All samples were analyzed using protein precipitation followed by LC-MS/MS analysis. Briefly, 50 μL plasma or final tissue homogenate were mixed with 50 μL 0.5M HClO4/acetonitrile 9/1 (containing 200 ng/mL internal standard bosentan). Samples were stirred and 300 μL water was added followed by centrifugation at 5600 rpm (4° C., 10 min). 10 μL supernatant was analyzed by LC/MS analysis. Calibration standards in plasma were prepared the same way. The LC column and conditions used were: Phenomenex, Polar RP, 4 μm, 50×2.1 mm at 0.4 mL/min flow rate with a 3 min gradient from 95% solvent A to 95% solvent B (Solvent A: Water/ACN/HCOOH, 90:10:0.1+10 mM NH4 formate; Solvent B: Water/ACN/HCOOH, 10:90:0.1+10 mM NH4 formate). Mass spectrometric conditions were: Thermo TSQ Vantage with positive heated electrospray ionization in MS/MS mode. Compounds mass transitions monitored were m/z 320.7 to 119.9. PK parameters for all studies were calculated using Phoenix WinNonlin Software.
We next determined the stability, tissue distribution and cleavage rate in plasma, liver and kidney of the designed prodrugs in male Wistar rats. In the in vivo screen, the kinetics and distribution of the prodrugs Ac-γ-Glu-SecrI (13a) and Ac-γ-Glu-O-SecrI (13c) were compared with the active γ-secretase inhibitor SecrI (8). After i.v. administration in male Wistar rats, the disappearance of the prodrugs and the formation of the active amine-SecrI (11a), amine-O-SecrI (11b) and SecrI (8) were compared in plasma, liver and kidney (Table 7A-C). First, we determined the pharmacokinetics (PK) behavior of SecrI (8) following i.v. administration (Table 7A). […] Liver and kidney exposure were much higher, with same exposure in liver and kidney. […] The selectivity towards kidney stayed constant over time. The carbonate analogue Ac-γ-Glu-O-SecrI (13c) prodrug was converted to a lower extent than the Ac-γ-Glu-SecrI (13a) to amine-O-SecrI (11b) but more to the linker free γ-secretase inhibitor 8 (Table 7C).
Plasma and tissue concentrations of administered compound (A-C) and formed amine-SecrI (11a), amine-O-SecrI (11b) or SecrI (8) (B-C) were determined following i.v. administration in rats (no standard deviation given due to sparse sampling; n≤3 rats per time point). Numbers in parentheses represent relative amounts with the exposure of kidney arbitrarily set at each time point to 100%. […] BQL=below quantifiable limit.

[2] = biological target: Notch signal transduction pathway; experiment: In vitro Notch signal transduction pathway activity assay (DR215/F2 luciferase reporter); format: cell-based, human; details: for IC50 for blockade of the Notch pathway, range in words: DR215/F2 cell reporter assay; for IC50: Homo sapiens, 215/F2 reporter cell line, 19 h, mean of at least 3 experiments
Protocol: The compounds were dissolved in dimethyl sulfoxide (DMSO) at 10 mM stock solution, aliquoted and stored at −4° C. until use, then diluted in PBS or cell culture medium. In the experimental settings, controls containing increasing concentrations of DMSO, corresponding to the amount of DMSO of the diluted compounds were always included. For in vivo experiments, the compounds were dissolved in 0.9% NaCl, incubated 30 min at 40° C. and sonicated for 5 min.
The requirement of proteolytic activation of the prodrugs to inhibit Notch cleavage by the γ-secretase, was investigated using a reporter assay (Table 3). The DR215/F2 cell line expresses a reporter construct designed to monitor the activity of the Notch signal transduction pathway. The DR215/F2 cell line 39 carries two transgenes: the firefly luciferase reporter gene expressed under the control of the Gal4 promoter and the human Notch1 activator gene fused with the yeast Gal4 transcription factor. This assay confirmed that the prodrugs were able to inhibit γ-secretase and the activation of the Notch pathway. The DR215/F2 cell reporter assay was also used to determine the IC50 for blockade of the Notch pathway by all the compounds designed and prepared.
The values were determined using the 215/F2 reporter cell line for Notch activation by the γ-secretase. All values are the mean of at least 3 experiments.
The preparation and characterization of rat brain-derived EC219 endothelial cells have been described in Juillerat-Jeanneret, L. et al. In Vitro Cell. Dev. Biol. 1992, 28A, 537-543. These cells express high levels of APA and γ-GT activities and can be used for determining kinetics in living cells, and were chosen as APA- and γ-GT-positive representative cell models. EC219 cells were grown in DMEM medium containing 1 g/l glucose, 10% heat-inactivated fetal calf serum (FCS, EuroClone, UK) supplemented with 100 U/mL penicillin and 100 μg/mL streptomycin (P/S) on uncoated cell culture plastic ware. The HEK293 and HK2 human kidney cells are available from the ATCC (American Tissue Culture Collection, Manassas, Va., USA). HEK293 cells were grown on uncoated cell culture plastic ware in Iscove modified Dulbecco medium (IMDM, Life Technologies) containing 10% FCS and P/S. HK2 cells were grown on uncoated cell culture plastic ware in DMEM/F-12 GlutaMAX medium (Gibco) containing 5% FCS, P/S, 1% ITS (1.0 mg/ml bovine insulin, 0.55 mg/ml human transferrin and 0.5 μg/ml sodium selenite, Sigma-Aldrich) and 5 ng/ml hydrocortisone. The human HEK293-derived DR215/F2 embryonic kidney cell line, stably transfected with pFR Luc and APP-Notch Gal (plasmid DR215) as described in WO 2006/061136 A2 and Brockhaus, M. Neuroreport 1998 9, 1481-1486, were maintained using IMDM with 10% FCS supplemented with P/S and kept under double-selection with 150 μg/ml G-418 and 50 μg/ml hygromycin B on coated (1:100 Poly-L-lysine) cell culture plastic ware. In this assay, the Notch-Gal4 protein is bound to the cell membrane via its trans-membrane domain. The Notch intracellular domain is released by proteolytic cleavage mediated by the γ-secretase and moves to the cell nucleus where it activates the reporter luciferase gene transcript. Inhibition of γ-secretase thus decreases luciferase activity. Briefly, cultures were grown in 96-well microplates to 80% confluence; the cells were then washed in PBS and exposed to decreasing concentrations of the γ-secretase-inhibitor analogues in complete IMDM culture medium without red phenol at 37° C. for 19 h. Then 75 μl of supernatant from each well was removed and the luciferase activity was determined by adding 25 μl of Steady-Glo luciferase assay reagent (Promega).

[3] = Pharmacokinetic assessment in C57BL/6 healthy wild-type mice (i.p.); format: in vivo, mouse; details: C57BL/6 mice, 10 mg/kg i.p.
Protocol: as §1
We next determined the stability, tissue distribution and cleavage rate in plasma, liver and kidney of the designed prodrugs in non-diseased mice. In the in vivo screen, the kinetics and distribution of γ-secretase inhibitor prodrugs Ac-γ-Glu-SecrI (13a), Ac-α-Glu-SecrI (15a) and H-α-Glu-SecrI (15b) were compared with the active γ-secretase inhibitor amine-SecrI (11a). After i.p administration (10 mg/kg) in C57BL/6 mice, the disappearance of the prodrugs and the formation of the active amine-SecrI (11a) were compared in plasma, liver and kidney (Table 5). First, we determined the pharmacokinetics (PK) behavior of amine-SecrI (11a) following i.p. administration (Table 5A). […] Liver and kidney exposure were much higher, with approximately 4.5-fold higher exposure in liver compared to kidney. […] The selectivity towards kidney appeared to decrease over time, probably due to fast clearance and re-equilibration of the amine-SecrI (11a). However, the high selectivity at earlier time-points assured that the total exposure over time was much higher in the kidney compared to the liver.

C[C@H]1Oc2ccc(F)cc2N(CCOC(=O)OCCN)C(=O)[C@H]1NC(=O)[C@@](C)(O)C(=O)NCC(F)(F)C(F)(F)F [Compound 11b, 2-Aminoethyl 2-((2R,3S)-7-fluoro-3-((S)-2-hydroxy-2-methyl-3-oxo-3-(2,2,3,3,3-pentafluoropropylamino)propanamido)-2-methyl-4-oxo-3,4-dihydrobenzo[b][1,4]oxazepin-5(2H)-yl)ethyl carbonate hydrochloride]
Plasma concentration of formed 11b ([1]; 13c 1.5 mg/kg i.v., 0.25 h): BQL
Plasma concentration of formed 11b ([1]; 13c 1.5 mg/kg i.v., 0.5 h): BQL
Plasma concentration of formed 11b ([1]; 13c 1.5 mg/kg i.v., 4 h): BQL
Formed 11b in kidney, relative amount (arbitrarily set to 100%) ([1]; 13c 1.5 mg/kg i.v., 7 h): (100) %
Plasma concentration of formed 11b ([1]; 13c 1.5 mg/kg i.v., 7 h): BQL
kidney selectivity, in words ([1]; formed after 13c i.v.): very good kidney selectivity
IC50 for blockade of the Notch pathway, range in words [2]: low nanomolar range
IC50 [2]: 0.5 nM

CC(=O)N[C@@H](CCC(=O)NCCOC(=O)OCCN1C(=O)[C@@H](NC(=O)[C@@](C)(O)C(=O)NCC(F)(F)C(F)(F)F)[C@@H](C)Oc2ccc(F)cc21)C(=O)O [Compound 13c, (S)-2-acetamido-5-(2-((2-((2R,3S)-7-fluoro-3-((S)-2-hydroxy-2-methyl-3-oxo-3-(2,2,3,3,3-pentafluoropropylamino)propanamido)-2-methyl-4-oxo-3,4-dihydrobenzo[b][1,4]oxazepin-5(2H)-yl)ethoxy)carbonyloxy)ethylamino)-5-oxopentanoic acid]
Kidney concentration of 13c ([1]; 13c 1.5 mg/kg i.v., 4 h): BQL
Liver concentration of 13c ([1]; 13c 1.5 mg/kg i.v., 4 h): BQL
Plasma concentration of 13c ([1]; 13c 1.5 mg/kg i.v., 4 h): BQL
Kidney concentration of 13c ([1]; 13c 1.5 mg/kg i.v., 7 h): BQL
Liver concentration of 13c ([1]; 13c 1.5 mg/kg i.v., 7 h): BQL
Plasma concentration of 13c ([1]; 13c 1.5 mg/kg i.v., 7 h): BQL
conversion to amine-O-SecrI (11b), in words ([1]; 13c i.v., compared with 13a): lower extent
conversion to the linker-free γ-secretase inhibitor 8, in words ([1]; i.v.): significantly converted
concentration at 0.25 h ([1]; kidney, 13c 1.5 mg/kg i.v., 0.25 h, read-out: Kidney concentration of 13c): 20.5 ng/g
concentration at 0.5 h ([1]; kidney, 13c 1.5 mg/kg i.v., 0.5 h, read-out: Kidney concentration of 13c): 3.8 ng/g
concentration at 0.25 h ([1]; liver, 13c 1.5 mg/kg i.v., 0.25 h, read-out: Liver concentration of 13c): 196 ng/g
concentration at 0.5 h ([1]; liver, 13c 1.5 mg/kg i.v., 0.5 h, read-out: Liver concentration of 13c): 32.3 ng/g
concentration at 0.25 h ([1]; plasma, 13c 1.5 mg/kg i.v., 0.25 h, read-out: Plasma concentration of 13c): 53 ng/mL
concentration at 0.5 h ([1]; plasma, 13c 1.5 mg/kg i.v., 0.5 h, read-out: Plasma concentration of 13c): 4.6 ng/mL
IC50 [2]: 170 nM

C[C@H]1Oc2ccc(F)cc2N(CCOC(=O)NCCNC(=O)[C@@H](N)CCC(=O)O)C(=O)[C@H]1NC(=O)[C@@](C)(O)C(=O)NCC(F)(F)C(F)(F)F [Compound 15b, (S)-4-amino-5-(2-((2-((2R,3S)-7-fluoro-3-((S)-2-hydroxy-2-methyl-3-oxo-3-(2,2,3,3,3-pentafluoropropylamino)propanamido)-2-methyl-4-oxo-3,4-dihydrobenzo[b][1,4]oxazepin-5(2H)-yl)ethoxy)carbonylamino)ethylamino)-5-oxopentanoic acid hydrochloride]
conversion to amine-SecrI (11a), in words [3]: overall highest conversion
Kidney concentration of administered compound ([3]; 4 h): BQL
Plasma concentration of administered compound ([3]; 4 h): BQL
Kidney concentration of administered compound ([3]; 7 h): BQL
Plasma concentration of administered compound ([3]; 7 h): BQL
concentration at 0.5 h ([3]; male, mouse, kidney, ip, read-out: Kidney concentration of administered compound): 8.51 ng/g
concentration at 0.5 h ([3]; male, mouse, liver, ip, read-out: Liver concentration of administered compound): 277 ng/g
concentration at 4 h ([3]; male, mouse, liver, ip, 4 h, read-out: Liver concentration of administered compound): 60.7 ng/g
concentration at 7 h ([3]; male, mouse, liver, ip, 7 h, read-out: Liver concentration of administered compound): 5.78 ng/g
concentration at 0.5 h ([3]; male, mouse, plasma, ip, read-out: Plasma concentration of administered compound): 3.67 ng/mL
IC50 for blockade of the Notch pathway, range in words [2]: high nM range
IC50 [2]: 258 nM

From patent US10632127B2, “Targeted notch pathway inhibitors” (Hoffmann-La Roche Inc., priority 2015, dated 2020)
